Laboratory results reported in US9156856B2, “Apoptosis-inducing agents for the treatment of cancer and immune and autoimmune diseases” (AbbVie Inc., priority 2009, dated 2015).

Target: Bcl-2 (Homo sapiens (Human), UniProt P10415)
Experiment: Time Resolved-Fluorescence Resonance Energy Transfer (TR-FRET) Bcl-2 binding assay with F-Bak peptide probe
Conditions: GST-Bcl-2 1 nM, F-Bak peptide probe 100 nM, Tb-anti-GST antibody 1 nM; Ki by Wang's equation
Description: Determination of the utility of compounds having Formula (I) as binders to and inhibitors of anti-apoptotic Bcl-2 proteins was performed using the Time Resolved-Fluorescence Resonance Energy Transfer (TR-FRET) Assay. Tb-anti-GST antibody was purchased from Invitrogen (Catalog No. PV4216).
Representative compounds were serially diluted in dimethyl sulfoxide (DMSO) starting at 50 μM (2× starting concentration; 10% DMSO) and 10 μL were transferred into a 384-well plate. The samples are then mixed on a shaker for 1 minute and incubated for an additional 3 hours at room temperature. For each assay, the probe/antibody and protein/probe/antibody were included on each assay plate as negative and positive controls, respectively. Fluorescence was measured on the ENVISION plate reader (Perkin Elmer) using a 340/35 nm excitation filter and 520/525 (F-Bak peptide) and 495/510 nm (Tb-labeled […] antibody) emission filters Inhibition constants (Ki) are shown in TABLE 2 below and were determined using Wang's equation (Wang Z.-X. An Exact Mathematical Expression For Describing Competitive Binding Of Two Different Ligands To A Protein Molecule. FEBS Lett. 1995, 360:111-4).
The inhibition constant (Ki) is the dissociation constant of an enzyme-inhibitor complex or a protein/small molecule complex, wherein the small molecule is inhibiting binding of one protein to another protein. So a large K, value indicates a low binding affinity and a small Ki value indicates a high binding affinity.
The compounds are therefore expected to have utility in treatment of diseases during which anti-apoptotic Bcl-2 protein is expressed.

Bcl-2, sequence (P10415 whole entry): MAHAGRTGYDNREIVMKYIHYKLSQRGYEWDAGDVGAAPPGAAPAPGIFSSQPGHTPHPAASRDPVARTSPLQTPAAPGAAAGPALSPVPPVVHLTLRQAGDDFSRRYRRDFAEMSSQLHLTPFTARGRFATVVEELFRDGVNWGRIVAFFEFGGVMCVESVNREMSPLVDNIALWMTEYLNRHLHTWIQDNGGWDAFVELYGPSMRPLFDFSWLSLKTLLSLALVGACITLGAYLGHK

SMILES	Ki
COC1(CC2CCCCC2)CCN(c2ccc(C(=O)NS(=O)(=O)c3cc([N+](=O)[O-])c(N[C@H](CCN(C)C)CSc4ccccc4)s3)cc2)CC1 [Example 1, 4-[4-(cyclohexylmethyl)-4-methoxypiperidin-1-yl]-N-{[5-({(1R)-3-(dimethylamino)-1-[(phenylthio)methyl]propyl}amino)-4-nitrothien-2-yl]sulfonyl}benzamide]	51.4 nM
COC1(Cc2cccc(C)c2)CCN(c2ccc(C(=O)NS(=O)(=O)c3cc([N+](=O)[O-])c(N[C@H](CCN(C)C)CSc4ccccc4)s3)cc2)CC1 [Example 2, N-{[5-({(1R)-3-(dimethylamino)-1-[(phenylthio)methyl]propyl}amino)-4-nitrothien-2-yl]sulfonyl}-4-[4-methoxy-4-(3-methylbenzyl)piperidin-1-yl]benzamide]	82.9 nM
CN(C)CC[C@H](CSc1ccccc1)Nc1sc(S(=O)(=O)NC(=O)c2ccc(N3CCN(CC=C(c4ccccc4)c4ccccc4)CC3)cc2)cc1[N+](=O)[O-] [Example 3, N-{[5-({(1R)-3-(dimethylamino)-1-[(phenylthio)methyl]propyl}amino)-4-nitrothien-2-yl]sulfonyl}-4-[4-(3,3-diphenylprop-2-enyl)piperazin-1-yl]benzamide]	51.7 nM
CC(=O)N(CCSc1ccccc1)C1CCN(S(=O)(=O)NC(=O)c2ccc(N3CCN(Cc4ccccc4-c4ccc(Cl)cc4)CC3)cc2)CC1 [Example 5, N-[(4-{acetyl[2-(phenylthio)ethyl]amino}piperidin-1-yl)sulfonyl]-4-{4-[(4′-chloro-1,1′-biphenyl-2-yl)methyl]piperazin-1-yl}benzamide]	176 nM
CN(CCSc1ccccc1)C1CCN(S(=O)(=O)NC(=O)c2ccc(N3CCN(Cc4ccccc4-c4ccc(Cl)cc4)CC3)cc2)CC1 [Example 6, 4-{4-[(4′-chloro-1,1′-biphenyl-2-yl)methyl]piperazin-1-yl}-N-[(4-{methyl[2-(phenylthio)ethyl]amino}piperidin-1-yl)sulfonyl]benzamide]	704 nM
CC(C)N(C)CC[C@H](CSc1ccccc1)Nc1sc(S(=O)(=O)NC(=O)c2ccc(N3CCN(Cc4ccccc4-c4ccc(Cl)cc4)CC3)cc2)cc1[N+](=O)[O-] [Example 7, 4-{4-[(4′-chloro-1,1′-biphenyl-2-yl)methyl]piperazin-1-yl}-N-{[5-({(1R)-3-[isopropyl(methyl)amino]-1-[(phenylthio)methyl]propyl}amino)-4-nitrothien-2-yl]sulfonyl}benzamide]	0.084 nM
CC(C)N(C)CC[C@H](CSc1ccccc1)Nc1sc(S(=O)(=O)NC(=O)c2ccc(N3CCN(CC4=C(c5ccc(Cl)cc5)CCCC4)CC3)cc2)cc1[N+](=O)[O-] [Example 8, 4-(4-{[2-(4-chlorophenyl)cyclohex-1-en-1-yl]methyl}piperazin-1-yl)-N-{[5-({(1R)-3-[isopropyl(methyl)amino]-1-[(phenylthio)methyl]propyl}amino)-4-nitrothien-2-yl]sulfonyl}benzamide]	0.064 nM
CC(C)N(C)CC[C@H](CSc1ccccc1)Nc1sc(S(=O)(=O)NC(=O)c2ccc(N3CCN(CC4=C(c5ccc(Cl)cc5)CCC(C)(C)C4)CC3)cc2)cc1[N+](=O)[O-] [Example 9, 4-(4-{[2-(4-chlorophenyl)-5,5-dimethylcyclohex-1-en-1-yl]methyl}piperazin-1-yl)-N-{[5-({(1R)-3-[isopropyl(methyl)amino]-1-[(phenylthio)methyl]propyl}amino)-4-nitrothien-2-yl]sulfonyl}benzamide]	0.307 nM
CC(=O)/N=c1\sc(S(=O)(=O)NC(=O)c2ccc(N3CCN(Cc4ccccc4-c4ccc(Cl)cc4)CC3)cc2)nn1C [Example 10, N-{[(5Z)-5-(acetylimino)-4-methyl-4,5-dihydro-1,3,4-thiadiazol-2-yl]sulfonyl}-4-{4-[(4′-chloro-1,1′-biphenyl-2-yl)methyl]piperazin-1-yl}benzamide]	743 nM
CC(=O)Nc1nc(C)c(S(=O)(=O)NC(=O)c2ccc(N3CCN(Cc4ccccc4-c4ccc(Cl)cc4)CC3)cc2)s1 [Example 11, N-{[2-(acetylamino)-4-methyl-1,3-thiazol-5-yl]sulfonyl}-4-{4-[(4′-chloro-1,1′-biphenyl-2-yl)methyl]piperazin-1-yl}benzamide]	177 nM
O=C(NCc1ccc(S(=O)(=O)NC(=O)c2ccc(N3CCN(Cc4ccccc4-c4ccc(Cl)cc4)CC3)cc2)s1)c1ccccc1 [Example 12, N-({5-[(benzoylamino)methyl]thien-2-yl}sulfonyl)-4-{4-[(4′-chloro-1,1′-biphenyl-2-yl)methyl]piperazin-1-yl}benzamide]	393 nM
O=C(NS(=O)(=O)c1c(Cl)nc2sccn12)c1ccc(N2CCN(Cc3ccccc3-c3ccc(Cl)cc3)CC2)cc1 [Example 13, 4-{4-[(4′-chloro-1,1′-biphenyl-2-yl)methyl]piperazin-1-yl}-N-[(6-chloroimidazo[2,1-b][1,3]thiazol-5-yl)sulfonyl]benzamide]	388 nM
O=C(NS(=O)(=O)N1CCOCC1)c1ccc(N2CCN(Cc3ccccc3-c3ccc(Cl)cc3)CC2)cc1 [Example 14, 4-{4-[(4′-chloro-1,1′-biphenyl-2-yl)methyl]piperazin-1-yl}-N-(morpholin-4-ylsulfonyl)benzamide]	409 nM
Cc1nc(C)c(S(=O)(=O)NC(=O)c2ccc(N3CCN(Cc4ccccc4-c4ccc(Cl)cc4)CC3)cc2)s1 [Example 15, 4-{4-[(4′-chloro-1,1′-biphenyl-2-yl)methyl]piperazin-1-yl}-N-[(2,4-dimethyl-1,3-thiazol-5-yl)sulfonyl]benzamide]	282 nM
O=C(NS(=O)(=O)c1csc(C(F)(F)F)c1-c1ccccc1)c1ccc(N2CCN(Cc3ccccc3-c3ccc(Cl)cc3)CC2)cc1 [Example 16, 4-{4-[(4′-chloro-1,1′-biphenyl-2-yl)methyl]piperazin-1-yl}-N-{[4-phenyl-5-(trifluoromethyl)thien-3-yl]sulfonyl}benzamide]	37.9 nM
Cc1c(S(=O)(=O)NC(=O)c2ccc(N3CCN(Cc4ccccc4-c4ccc(Cl)cc4)CC3)cc2)sc2ccc(F)cc12 [Example 17, 4-{4-[(4′-chloro-1,1′-biphenyl-2-yl)methyl]piperazin-1-yl}-N-[(5-fluoro-3-methyl-1-benzothien-2-yl)sulfonyl]benzamide]	356 nM
O=C(NS(=O)(=O)c1nc2ccccc2s1)c1ccc(N2CCN(Cc3ccccc3-c3ccc(Cl)cc3)CC2)cc1 [Example 18, N-(1,3-benzothiazol-2-ylsulfonyl)-4-{4-[(4′-chloro-1,1′-biphenyl-2-yl)methyl]piperazin-1-yl}benzamide]	129 nM
O=C(NS(=O)(=O)c1cccs1)c1ccc(N2CCN(Cc3ccccc3-c3ccc(Cl)cc3)CC2)cc1 [Example 19, 4-{4-[(4′-chloro-1,1′-biphenyl-2-yl)methyl]piperazin-1-yl}-N-(thien-2-ylsulfonyl)benz amide]	234 nM
Cc1cc(C)n2nc(S(=O)(=O)NC(=O)c3ccc(N4CCN(Cc5ccccc5-c5ccc(Cl)cc5)CC4)cc3)nc2n1 [Example 20, 4-{4-[(4′-chloro-1,1′-biphenyl-2-yl)methyl]piperazin-1-yl}-N-[(5,7-dimethyl[1,2,4]triazolo[1,5-a]pyrimidin-2-yl)sulfonyl]benzamide]	48.1 nM
COC(=O)c1ccc(S(=O)(=O)NC(=O)c2ccc(N3CCN(Cc4ccccc4-c4ccc(Cl)cc4)CC3)cc2)n1C [Example 22, methyl 5-{[(4-{4-[(4′-chloro-1,1′-biphenyl-2-yl)methyl]piperazin-1-yl}benzoyl)amino]sulfonyl}-1-methyl-1H-pyrrole-2-carboxylate]	188 nM
Cc1cc(-c2oncc2S(=O)(=O)NC(=O)c2ccc(N3CCN(Cc4ccccc4-c4ccc(Cl)cc4)CC3)cc2)n(C)n1 [Example 23, 4-{4-[(4′-chloro-1,1′-biphenyl-2-yl)methyl]piperazin-1-yl}-N-{[5-(1,3-dimethyl-1H-pyrazol-5-yl)isoxazol-4-yl]sulfonyl}benzamide]	447 nM
Cc1nsc(S(=O)(=O)NC(=O)c2ccc(N3CCN(Cc4ccccc4-c4ccc(Cl)cc4)CC3)cc2)c1Cl [Example 24, 4-{4-[(4′-chloro-1,1′-biphenyl-2-yl)methyl]piperazin-1-yl}-N-[(4-chloro-3-methylisothiazol-5-yl)sulfonyl]benzamide]	342 nM
Cc1c(S(=O)(=O)NC(=O)c2ccc(N3CCN(Cc4ccccc4-c4ccc(Cl)cc4)CC3)cc2)sc2ccc(Br)cc12 [Example 25, N-[(5-bromo-3-methyl-1-benzothien-2-yl)sulfonyl]-4-{4-[(4′-chloro-1,1′-biphenyl-2-yl)methyl]piperazin-1-yl}benzamide]	372 nM
O=C(NS(=O)(=O)c1ccc(/C=C/c2ncon2)s1)c1ccc(N2CCN(Cc3ccccc3-c3ccc(Cl)cc3)CC2)cc1 [Example 26, 4-{4-[(4′-chloro-1,1′-biphenyl-2-yl)methyl]piperazin-1-yl}-N-({5-[(E)-2-(1,2,4-oxadiazol-3-yl)vinyl]thien-2-yl}sulfonyl)benzamide]	393 nM
Cc1nn(CCCl)c(C)c1S(=O)(=O)NC(=O)c1ccc(N2CCN(Cc3ccccc3-c3ccc(Cl)cc3)CC2)cc1 [Example 27, 4-{4-[(4′-chloro-1,1′-biphenyl-2-yl)methyl]piperazin-1-yl}-N-{[1-(2-chloroethyl)-3,5-dimethyl-1H-pyrazol-4-yl]sulfonyl}benzamide]	434 nM
